From patent publication US20060128729A1, “Novel bicyclic heterocyclic compounds, process for their preparation and compositions containing them” (priority 2004, published 2006)
Structures can show the parent of a compound that is named as a salt.

melting point [°C]	Compound
200 to 204	CCCc1nn(C)c2c(Nc3ccc(Cl)c(OC)c3)nc(-c3cccs3)nc12.Cl
246 to 250	CCCc1nn(C)c2c(Nc3ccc4c(c3)OCO4)nc(-c3cccs3)nc12.Cl
222 to 224	COc1cc(Nc2nc(-c3ccccc3)nc3c(C)nn(C)c23)ccc1Cl.Cl
238 to 240	Cc1nn(C)c2c(Nc3ccc(O)c(Cl)c3)nc(-c3ccc(F)cc3)nc12.Cl
194 to 196	CCCc1nn(C)c2c(Nc3ccc(OC)c(F)c3)nc(-c3ccccc3OCC)nc12.Cl
180	CCCc1nn(C)c2c(Nc3ccc(O)c(Cl)c3)nc(-c3ccccc3)nc12.Cl
228 to 230	CCCc1nn(C)c2c(Nc3ccc(Cl)c(OC)c3)nc(-c3ccccc3)nc12.Cl
161 to 164	CCCc1nn(C)c2c(Nc3ccc(F)cc3)nc(-c3ccc(F)cc3)nc12.Cl
> 240	COc1cc(Nc2nc(-c3cccs3)nc3c(C)nn(C)c23)ccc1Cl.Cl
> 240	Cc1nn(C)c2c(Nc3ccc(O)c(Cl)c3)nc(-c3cccs3)nc12.Cl
218 to 220	Cc1nn(C)c2c(Nc3cccc(F)c3)nc(-c3ccccc3)nc12.Cl
220 to 222	CCCc1nn(C)c2c(Nc3cccc(C(F)(F)F)c3)nc(-c3ccc(F)cc3)nc12.Cl
178 to 181	CCCc1nn(C)c2c(Nc3ccc(OC)c(OC)c3)nc(-c3ccc(F)cc3)nc12.Cl
248 to 250	Cc1nn(C)c2c(Nc3ccc(Cl)nc3)nc(-c3ccc(F)cc3)nc12.Cl
250 to 252	CC(=O)Nc1cc(Nc2nc(-c3ccc(F)cc3)nc3c(C)nn(C)c23)ccc1O.Cl
272 to 274	Cc1nn(C)c2c(Nc3ccc(C(N)=O)cc3)nc(-c3ccc(F)cc3)nc12.Cl
200 to 202	CCCc1nn(C)c2c(Nc3ccc(O)c(Cl)c3)nc(-c3ccc(F)cc3)nc12.Cl
136 to 138	CCCc1nn(C)c2c(Nc3ccc(OC)c(F)c3)nc(C(F)(F)F)nc12.Cl
230 to 232	CCCc1nn(C)c2c(Nc3ccc(Cl)c(OC)c3)nc(-c3ccc(F)cc3)nc12.Cl
161 to 162	CCCc1nn(C)c2c(Nc3ccc(O)c(F)c3)nc(-c3ccc(F)cc3)nc12.Cl
126 to 128	CCCc1nn(C)c2c(Oc3ccc(F)cc3)nc(-c3ccccc3)nc12
220 to 222	Cc1nn(C)c2cc(-c3ccc(F)cc3)nc(Nc3cccc(C(F)(F)F)c3)c12.Cl
215 to 218	Cc1nn(C)c2cc(-c3ccc(F)cc3)nc(Nc3ccc(Cl)nc3)c12.Cl

melting point [°C]	Compound
248 to 250	Cc1nn(C)c2cc(-c3ccc(F)cc3)nc(Nc3ccc(OC(F)(F)F)cc3)c12.Cl
293 to 295	CNS(=O)(=O)c1ccc(Nc2nc(-c3ccc(F)cc3)cc3c2c(C)nn3C)cc1.Cl
210 to 213	Cl.Fc1ccc(-c2nc(Nc3cccc(F)c3)c3cnn(-c4ccccc4)c3n2)cc1
220 to 222	Cl.Fc1ccc(-c2nc(Nc3ccc(OC(F)(F)F)cc3)c3cnn(-c4ccccc4)c3n2)cc1
258 to 260	CCCc1nn(C)c2c(Nc3ccc(OC)c(Cl)c3)nc(-c3cccs3)nc12.Cl
223 to 225	Cc1nn(C)c2cc(-c3ccc(F)cc3)nc(Nc3ccc(Cl)c(C(F)(F)F)c3)c12.Cl
272 to 274	Cc1nc2cc(Nc3nc(-c4ccccc4)nc4c(C)nn(C)c34)ccc2o1.Cl
246 to 250	CCCc1nn(C)c2c(Nc3ccc4c(c3)OCO4)nc(-c3cccs3)nc12 (as salt: hydrochloride) [E 52, benzo[1,3]dioxol-5-yl-(1-methyl-3-propyl-5-thiophen-2-yl-1H-pyrazolo[4,3-d]pyrimidin-7-yl)-amine hydrochloride]
142 to 144	CCCc1nn(C)c2c(N3CCC(O)CC3)nc(-c3ccc(OC)c(OC)c3)nc12 [E 20, 1-[5-(3,4-dimethoxy-phenyl)-1-methyl-3-propyl-1H-pyrazolo[4,3-d]pyrimidin-7-yl]-piperidin-4-ol]
198 to 200	CCCc1nn(C)c2c(-c3ccc(O)c(C)c3)nc(-c3ccc(OC)c(OC)c3)nc12 [E 53, 4-[5-(3,4-dimethoxy-phenyl)-1-methyl-3-propyl-1H-pyrazolo[4,3-d]pyrimidin-7-yl]-2-methyl-phenol]
180 to 182	CCCc1nn(C)c2c(-c3ccc(O)c(C)c3)nc(-c3ccc(OC)c(O)c3)nc12 [E 54, 4-[5-(3-hydroxy,4-methoxy-phenyl)-1-methyl-3-propyl-1H-pyrazolo[4,3-d]pyrimidin-7-yl]-2-methyl-phenol]
182 to 184	CCCc1nn(C)c2c(-c3ccc(O)c(Cl)c3)nc(-c3ccc(F)cc3)nc12 [E 55, 2-chloro-4-[5-(4-fluoro-phenyl)-1-methyl-3-propyl-1H-pyrazolo[4,3-d]pyrimidin-7-yl]-phenol]
204 to 206	CCCc1nn(C)c2c(-c3ccc(O)c(C)c3)nc(-c3ccccc3)nc12 [E 57, 2-methyl-4-(1-methyl-5-phenyl-3-propyl-1H-pyrazolo[4,3-d]pyrimidin-7-yl)-phenol]
136 to 138	CCCc1nn(C)c2c(-c3ccc(OC)c(C)c3)nc(-c3ccc(F)cc3)nc12 [E 58, 5-(4-fluoro-phenyl)-7-(4-methoxy-3-methyl-phenyl)-1-methyl-3-propyl-1H-pyrazolo[4,3-d]pyrimidine]
174 to 176	CCCc1nn(C)c2c(-c3ccc(OC)c(F)c3)nc(-c3ccc(F)cc3)nc12 [E 59, 7-(3-fluoro-4-methoxy-phenyl)-5-(4-fluoro-phenyl)-1-methyl-3-propyl-1H-pyrazolo[4,3-d]pyrimidine]
158 to 160	CCCc1nn(C)c2c(-c3ccc(OC)c(C)c3)nc(-c3ccccc3)nc12 [E 60, 7-(4-methoxy-3-methyl-phenyl)-1-methyl-5-phenyl-3-propyl-1H-pyrazolo[4,3-d]pyrimidine]
158 to 160	CCCc1nn(C)c2c(-c3ccc(OC)c(F)c3)nc(-c3ccccc3)nc12 [E 61, 7-(3-fluoro-4-methoxy-phenyl)-1-methyl-5-phenyl-3-propyl-1H-pyrazolo[4,3-d]pyrimidine]
114 to 116	CCCc1nn(C)c2c(-c3ccc(SC)cc3)nc(-c3ccc(F)cc3)nc12 [E 62, 5-(4-fluoro-phenyl)-1-methyl-7-(4-methylsulfanyl-phenyl)-3-propyl-1H-pyrazolo[4,3-d]pyrimidine]
148 to 150	CCCc1nn(C)c2c(-c3ccc(C)cc3)nc(-c3ccc(F)cc3)nc12 [E 63, 5-(4-fluoro-phenyl)-1-methyl-3-propyl-7-p-tolyl-1H-pyrazolo[4,3-d]pyrimidine]
115 to 118	CCCc1nn(C)c2c(-c3ccccc3)nc(-c3ccc(F)cc3)nc12 [E 64, 5-(4-fluoro-phenyl)-1-methyl-7-phenyl-3-propyl-1H-pyrazolo[4,3-d]pyrimidine]
142 to 144	Cc1nn(C)c2c(-c3ccc4c(c3)OCO4)nc(-c3ccccc3)nc12 [E 65, 7-benzo[1,3]dioxol-5-yl-1,3-dimethyl-5-phenyl-1H-pyrazolo[4,3-d]pyrimidine]
150 to 152	Cc1nn(C)c2c(-c3ccccc3)nc(-c3ccc(F)cc3)nc12 [E 66, 5-(4-fluoro-phenyl)-1,3-dimethyl-7-phenyl-1H-pyrazolo[4,3-d]pyrimidine]
